Measurements as given in patent US20120088827A1 (Profectus Biosciences, Inc., priority 2009, published 2012).

Tested on: PGE2
Test: Inhibition of PGE2 release in LPS-stimulated RAW 264.7 cells
Type: cell-based
Details: Mus musculus, RAW264.7; pretreated 2 hours, 1 μg/mL LPS 20-24 hours
Protocol: RAW 264.7 cells were seeded at 4×10^4 cells per well in complete growth medium in 96 well white TC plates with clear bottoms one day prior to the assay. The next day the cells were washed once and 100 μL fresh growth media was added. Cells were pretreated with 0.5 μL from a 6 point 200× dilution series of the test compounds in DMSO for 2 hours. Following pretreatment with the drugs, the inflammatory response was induced by adding 5 μL of a 20 μg/mL solution of LPS (Sigma). The cells were incubated in the presence of the drugs and 1 μg/mL LPS for another 20-24 hours. Typically after treatment the total DMSO was […] of the culture volume and the final concentrations of the compounds were approximately: 40, 20, 10, 1, 0.2 and 0 μM depending on the MW of each compound. Modified dilution series were prepared as needed to get adequate dose response curves without changing the % DMSO. Samples were run in duplicate or triplicate and included DMSO treated control wells with and without LPS stimulation. Drugs with a known activity such as Parthenolide or DHMEQ were run as experimental controls. After 20-24 hours LPS activation, the media supernatant was collected from the cells and replaced with fresh media. The supernatant samples were cleared by centrifugation at 1,000×g for 5 minutes, transferred to fresh storage plates, and stored frozen at −30° C.
After determining the appropriate supernatant dilutions experimentally, PGE2 levels in the supernatants were quantified using Parameter™ PGE2 Immunoassay (R&D Systems) according to the manufacturer's protocol. […] Absorbance at 450 nm with a reference at 595 nm was recorded using a Becton-Dickinson DTX 880 Multimode Detector.
The concentration of PGE2 in the unknown samples was determined from a curve-fit of the PGE2 standard absorbance data and multiplying by the dilution factor. […] Inhibition of the amount of PGE2 released in the drug treated wells was calculated relative to the maximum activation in the DMSO+LPS treated control wells (i.e., % inhibition=100−(drug+LPS treated)/(DMSO+LPS treated)). […]

Row | Compound | EC50
1 | O=C(CC1CCCCC1)Oc1ccccc1C(=O)NC1=CC(=O)C2OC2C1O (racemic) [Example 3, (±)-2-(2-hydroxy-5-oxo-7-oxabicyclo[4.1.0]hept-3-en-3-ylcarbamoyl)phenyl 2-cyclohexylacetate] | 1100 nM
2 | CC(C)CC(=O)Oc1ccccc1C(=O)NC1=CC(=O)C2OC2C1O (racemic) [Example 1, (±)-2-(2-hydroxy-5-oxo-7-oxabicyclo[4.1.0]hept-3-en-3-ylcarbamoyl)phenyl 3-methylbutanoate] | 1900 nM
3 | CC(C)OC(=O)Oc1ccccc1C(=O)NC1=CC(=O)C2OC2C1OC(=O)OC(C)C (racemic) [Example 2, (±)-3-(2-isopropoxycarbonyloxy-benzoylamino)-5-oxo-7-oxa-bicyclo[4.1.0]hept-3-en-2-yl ester isopropyl ester] | 2700 nM
